US10842779B2, “Heterocyclic compounds and their use in preventing or treating bacterial infections” (priority 2015, dated 2020)
pIC50: −log10 of the molar value. Where two headings read alike, the source gives them in different places.

Columns and labels:
OXA-11 = molecular target: T1, OXA-11 (Pseudomonas aeruginosa, UniProt Q06778); test: β-Lactamase inhibitory activity, nitrocefin hydrolysis; format: biochemical
T1 construct: made in house; host or cells: E. coli
Procedure: Enzyme activity was monitored by spectrophotometric measurement of nitrocefin (NCF-TOKU-E, N005) hydrolysis at 485 nm, at room temperature and in assay buffer A: 100 mM Phosphate pH7, 2% glycerol and 0.1 mg/mL Bovine serum albumin (Sigma, B4287). […] To a transparent polystyrene plate (Corning, 3628) were added in each well 5 μL DMSO or inhibitor dilutions in DMSO and 80 μL enzyme in buffer A. Plates were immediately read at 485 nm in a microplate spectrophotometer (BioTek, PowerWave HT) to enable background subtraction. After 30 min of pre-incubation at room temperature, 15 μL of NCF (200 μM final) were finally added in each well. Final enzyme concentrations were 0.1 nM (TEM-1), 0.075 nM (SHV-1), 0.4 nM (CTX-M-15), 1 nM (KPC-2), 0.2 nM (P99 AmpC), 0.2 nM (CMY-37), 0.4 nM (AmpC P. aeruginosa), 0.2 nM (OXA-1), 1.2 nM (OXA-11), 0.4 nM (OXA-15) and 0.3 nM (OXA-48). After 20 min incubation at room temperature, plates were once again read at 485 nm. Enzyme activity was obtained by subtracting the final signal by the background, and was converted to enzyme inhibition using non inhibited wells. IC50 curves were fitted to a classical Langmuir equilibrium model with Hill slope using XLFIT (IDBS).

OXA-15 = molecular target: T2, OXA-15 (Pseudomonas aeruginosa, UniProt Q51574); test: as above; format: biochemical
T2 construct: made in house; host or cells: E. coli
Procedure: Enzyme activity was monitored by spectrophotometric measurement of nitrocefin (NCF-TOKU-E, N005) hydrolysis at 485 nm, at room temperature and in assay buffer A: 100 mM Phosphate pH7, 2% glycerol and 0.1 mg/mL Bovine serum albumin (Sigma, B4287). Enzymes were cloned in E. coli expression vector, expressed and purified in house using classical procedures. To a transparent polystyrene plate (Corning, 3628) were added in each well 5 μL DMSO or inhibitor dilutions in DMSO and 80 μL enzyme in buffer A. Plates were immediately read at 485 nm in a microplate spectrophotometer (BioTek, PowerWave HT) to enable background subtraction. After 30 min of pre-incubation at room temperature, 15 μL of NCF (200 μM final) were finally added in each well. Final enzyme concentrations were 0.1 nM (TEM-1), 0.075 nM (SHV-1), 0.4 nM (CTX-M-15), 1 nM (KPC-2), 0.2 nM (P99 AmpC), 0.2 nM (CMY-37), 0.4 nM (AmpC P. aeruginosa), 0.2 nM (OXA-1), 1.2 nM (OXA-11), 0.4 nM (OXA-15) and 0.3 nM (OXA-48). After 20 min incubation at room temperature, plates were once again read at 485 nm. Enzyme activity was obtained by subtracting the final signal by the background, and was converted to enzyme inhibition using non inhibited wells. IC50 curves were fitted to a classical Langmuir equilibrium model with Hill slope using XLFIT (IDBS).

C. freundii = test: MIC of compounds alone, broth microdilution; format: cell-based; conditions: Citrobacter freundii, alone, read-out: MIC
Procedure: (§1) Method 2: MIC of Compounds and Synergy with Ceftazidime Against Bacterial Isolates (Table 2 and 3)
(§2) Compounds of the present invention were assessed against genotyped bacterial strains alone or in combination with the β-lactam ceftazidime. In the assays, MICs of said compounds, or of ceftazidime at fixed concentrations of said compounds were determined by the broth microdilution method according to the Clinical Laboratory Standards Institute (CLSI—M7-A7). Briefly, compounds alone according to the invention were prepared in DMSO and spotted (2 μL each) on sterile polystyrene plates (Corning, 3788). Compounds and ceftazidime dilutions were prepared in DMSO and spotted (1 μL each) on sterile polystyrene plates (Corning, 3788). Log phase bacterial suspensions were adjusted to a final density of 5×10^5 cfu/mL in cation-adjusted Mueller-Hinton broth (Beckton-Dickinson) and added to each well (98 μL). Microplates were incubated for 16-20 h at 35° C. in ambient air. The MIC of the compounds was defined as the lowest concentration of said compounds that prevented bacterial growth as read by visual inspection. The MIC of ceftazidime at each compound concentration was defined as the lowest concentration of ceftazidime that prevented bacterial growth as read by visual inspection.

C. murliniae = test: MIC of compounds alone, broth microdilution; format: cell-based; conditions: alone; CMU 210102; beta-lactamases VIM-4; read-out: MIC
Procedure: as §1, §2

E. aerogenes = test: MIC of compounds alone, broth microdilution; format: cell-based; conditions: Klebsiella aerogenes; alone; EAE 200261; beta-lactamases TEM-x AmpC; read-out: MIC
Procedure: as §1, §2

E. cloacae = test: MIC of compounds alone, broth microdilution; format: cell-based; conditions: Enterobacter cloacae
Procedure: as §1, §2

E. coli = test: MIC of compounds alone, broth microdilution; format: cell-based; conditions: Escherichia coli
Procedure: as §1, §2

K. oxytoca = test: MIC of compounds alone, broth microdilution; format: cell-based; conditions: Klebsiella oxytoca; alone; KOX UFR21; beta-lactamases TEM-1, CTX-M-15 OXA-48; read-out: MIC
Procedure: as §1, §2

K. pneumoniae = test: MIC of compounds alone, broth microdilution; format: cell-based; conditions: Klebsiella pneumoniae, read-out: MIC
Procedure: as §1, §2

M. morganii [1] = test: MIC of compounds alone, broth microdilution; format: cell-based; conditions: Morganella morganii, MMO 200321, beta-lactamases TEM-1, CTX-M-15 OXA-1
Procedure: as §1, §2

P. aeruginosa = test: MIC of compounds alone, broth microdilution; format: cell-based; conditions: Pseudomonas aeruginosa, alone, read-out: MIC
Procedure: as §1, §2

P. mirabilis = test: MIC of compounds alone, broth microdilution; format: cell-based; conditions: Proteus mirabilis, PMI UFR82, beta-lactamases CMY-2
Procedure: as §1, §2

S. marcescens = test: MIC of compounds alone, broth microdilution; format: cell-based; conditions: Serratia marcescens, SMA UFR30, beta-lactamases OXA-405
Procedure: as §1, §2

M. morganii [2] = test: Synergy with ceftazidime: MIC of ceftazidime at fixed concentration of compound; format: cell-based; conditions: Morganella morganii, read-out: MIC of CAZ + compound (4 μg/mL)
Procedure: as §1, §2

T1 sequence (Q06778 21-266): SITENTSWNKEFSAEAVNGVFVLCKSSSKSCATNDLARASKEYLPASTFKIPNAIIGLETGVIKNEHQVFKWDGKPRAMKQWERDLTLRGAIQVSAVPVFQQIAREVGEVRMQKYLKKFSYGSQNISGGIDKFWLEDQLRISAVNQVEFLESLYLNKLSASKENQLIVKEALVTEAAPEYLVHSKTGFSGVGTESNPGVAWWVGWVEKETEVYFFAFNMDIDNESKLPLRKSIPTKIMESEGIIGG
T2 sequence (Q51574 22-275): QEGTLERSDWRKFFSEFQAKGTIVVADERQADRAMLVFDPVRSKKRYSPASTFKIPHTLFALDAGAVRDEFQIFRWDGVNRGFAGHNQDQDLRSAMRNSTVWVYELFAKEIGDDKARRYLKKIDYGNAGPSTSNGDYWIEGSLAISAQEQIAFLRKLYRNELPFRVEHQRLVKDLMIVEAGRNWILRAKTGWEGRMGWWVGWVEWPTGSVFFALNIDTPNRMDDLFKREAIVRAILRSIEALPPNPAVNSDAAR

O=C(O)C(F)(F)F.O=C1N2C[C@H](c3scnc3[C@H]2c2ncc[nH]2)N1OS(=O)(=O)[O-].[Na+] (relative stereo) [Example 1, Sodium and 2,2,2-trifluoroacetate [trans-7-(1H-imidazol-3-ium-2-yl)-9-oxo-3-thia-5,8,10-triaza-tricyclo[6.2.1.0^2,6]undeca-2(6),4-dien-10-yl]sulfate]
0.5 µg/mL: MIC (E. cloacae; ECL 190408, beta-lactamases TEM-1, CTX-M-15 OXA-1, read-out: MIC) | MIC (E. cloacae; ECL UFR51, beta-lactamases SHV-12 IMP-8, read-out: MIC) | MIC (E. coli; ECO 190314, beta-lactamases CTX-M-1, read-out: MIC) | MIC (E. coli; ECO 200259, beta-lactamases CTX-M-14, read-out: MIC) | MIC (E. coli; ECO 200344, beta-lactamases CTX-M-1, read-out: MIC) | MIC (E. coli; ECO UFR45, beta-lactamases TEM-1 CMY-4 OXA-1 OXA-48 VIM-1, read-out: MIC) | MIC (E. coli; ECO UFR62, beta-lactamases TEM-1, CTX-M-9 KPC-2, read-out: MIC)
1 µg/mL: MIC (C. freundii; CFR UFR10, beta-lactamases OXA-48) | MIC (E. cloacae; ECL 200322, beta-lactamases TEM-1, CTX-M-15 OXA-1, read-out: MIC) | MIC (E. cloacae; ECL 260508, beta-lactamases TEM-1, CTX-M-15, read-out: MIC) | MIC (E. cloacae; ECL UFR38, beta-lactamases CTX-M-15 NDM-1, read-out: MIC) | MIC (E. cloacae; ECL UFR70, beta-lactamases TEM-1, CTX-M-15 CMY-2 OXA-1, read-out: MIC) | MIC (E. coli; ECO 180070, beta-lactamases TEM-1, CTX-M-15, read-out: MIC) | MIC (E. coli; ECO 190317, beta-lactamases TEM-1, SHV-12, CTX-M-15 OXA-1, read-out: MIC) | MIC (E. coli; ECO 190457, beta-lactamases CTX-M-15 OXA-1, read-out: MIC) | MIC (E. coli; ECO 260304, beta-lactamases CTX-M-15, read-out: MIC) | MIC (E. coli; ECO UFR18, beta-lactamases CTX-M-15 OXA-204, read-out: MIC) | MIC (E. coli; ECO UFR19, beta-lactamases CTX-M-15 CMY-2 OXA-1 OXA-204, read-out: MIC) | MIC (E. coli; ECO UFR32, beta-lactamases TEM-1, VEB-1 OXA-10, read-out: MIC) | MIC (E. coli; ECO UFR52, beta-lactamases TEM-1, SHV-12 IMP-8, read-out: MIC) | MIC (E. coli; ECO UFR61O, beta-lactamases TEM-1 KPC-2, read-out: MIC) | MIC (K. pneumoniae; alone, KPN UFR80, beta-lactamases SHV-11 DHA-1 OXA-1)
16 µg/mL: MIC (E. coli; ECO UFR41, beta-lactamases TEM-1, CTX-M-15 CMY-2 OXA-1 NDM-4, read-out: MIC) | MIC (K. pneumoniae; alone, KPN 6299, beta-lactamases TEM-1, SHV-11 OXA-163) | MIC (K. pneumoniae; alone, KPN UFR43, beta-lactamases SHV-11, CTX-M-15 CMY-2 OXA-1 NDM-1) | MIC (K. pneumoniae; alone, KPN UFR65, beta-lactamases TEM-1, SHV-11 KPC-2) | MIC (S. marcescens)
≤ 0.25 µg/mL: MIC (M. morganii [2])
4 µg/mL: MIC (C. murliniae) | MIC (E. cloacae; ECL 190310, beta-lactamases AmpC, read-out: MIC) | MIC (E. cloacae; ECL 260323, beta-lactamases AmpC, read-out: MIC) | MIC (E. cloacae; ECL P99, beta-lactamases AmpC, read-out: MIC) | MIC (E. coli; ECO 260096, beta-lactamases CTX-M-132, read-out: MIC) | MIC (E. coli; ECO UFR17, beta-lactamases TEM-1, CTX-M-15 CMY-2 OXA-1 OXA-181, read-out: MIC) | MIC (K. oxytoca) | MIC (K. pneumoniae; BAA1898, alone, KPN BAA-1898, beta-lactamases TEM-1, SHV-11, SHV-12 KPC-2) | MIC (K. pneumoniae; alone, KPN 131119, beta-lactamases TEM-1, SHV-11, CTX-M-15 OXA-1 OXA-48) | MIC (K. pneumoniae; alone, KPN 160143, beta-lactamases TEM-1, SHV-1, CTX-M-15 KPC-2 OXA-1) | MIC (K. pneumoniae; alone, KPN 190128, beta-lactamases TEM-1, SHV-32, CTX-M-15 OXA-1) | MIC (K. pneumoniae; alone, KPN 190425, beta-lactamases TEM-1, SHV-1, CTX-M-15 OXA-1) | MIC (K. pneumoniae; alone, KPN 260251, beta-lactamases TEM-1, SHV-11, SHV-12, CTX-M-15 KPC-2) | MIC (K. pneumoniae; alone, KPN 700603, beta-lactamases SHV-18 OXA-2) | MIC (K. pneumoniae; alone, KPN ARA, beta-lactamases TEM-1, SHV-11, CTX-M-15 OXA-1 OXA-48) | MIC (K. pneumoniae; alone, KPN UFR22_O, beta-lactamases TEM-1, SHV-1 OXA-48) | MIC (K. pneumoniae; alone, KPN UFR27, beta-lactamases TEM-1, SHV-28, CTX-M-15 OXA-204) | MIC (K. pneumoniae; alone, KPN UFR42, beta-lactamases SHV-2, CTX-M-15 OXA-1 OXA-181 NDM-1) | MIC (K. pneumoniae; alone, KPN UFR53, beta-lactamases TEM-1 IMP-1) | MIC (K. pneumoniae; alone, KPN UFR77, beta-lactamases CMY-2) | MIC (K. pneumoniae; alone, KPN UFR79, beta-lactamases DHA-1 OXA-1)
8 µg/mL: MIC (C. freundii; CFR UFR11, beta-lactamases TEM-1 OXA-1 OXA-48) | MIC (E. aerogenes) | MIC (E. cloacae; ECL 2185D, beta-lactamases OXA-163, read-out: MIC) | MIC (E. cloacae; ECL 200138, beta-lactamases AmpC, read-out: MIC) | MIC (E. cloacae; ECL 260033, beta-lactamases AmpC, read-out: MIC) | MIC (E. cloacae; ECL 260253, beta-lactamases TEM-1 KPC-3, read-out: MIC) | MIC (E. cloacae; ECL HAN, beta-lactamases OXA-35, read-out: MIC) | MIC (E. cloacae; ECL UFR14, beta-lactamases TEM-1, SHV-12, CTX-M-15 DHA-1 OXA-1 OXA-48, read-out: MIC) | MIC (E. cloacae; ECL UFR60, beta-lactamases TEM-1, CTX-M-15 KPC-2, read-out: MIC) | MIC (E. cloacae; ECL UFR84, beta-lactamases TEM-1 AmpC OXA-1, read-out: MIC) | MIC (K. pneumoniae; alone, KPN 190270, beta-lactamases TEM-1, SHV-76, CTX-M-15 OXA-1) | MIC (K. pneumoniae; alone, KPN 270077, beta-lactamases TEM-1, SHV-1, CTX-M-15) | MIC (K. pneumoniae; alone, KPN 6122012, beta-lactamases SHV-1 NDM-1) | MIC (K. pneumoniae; alone, KPN UFR24, beta-lactamases TEM-1, SHV-2, SHV-11 OXA-1 OXA-48 OXA-47) | MIC (K. pneumoniae; alone, KPN UFR66, beta-lactamases TEM-1, SHV-11, CTX-M-15 KPC-2) | MIC (K. pneumoniae; alone, KPN UFR68, beta-lactamases TEM-1, SHV-11, CTX-M-15 KPC-3)
> 32 µg/mL: MIC (K. pneumoniae; alone, KPN 260252, beta-lactamases TEM-1, SHV-11 KPC-3) | MIC (P. aeruginosa; PAE CIP107051, beta-lactamases TEM-24) | MIC (P. aeruginosa; PAE MUS, beta-lactamases OXA-20 OXA-18)
0.25 µg/mL: MIC (E. coli; ECO 190549, beta-lactamases CTX-M-1, read-out: MIC) | MIC (E. coli; ECO 200159, beta-lactamases TEM-1, CTX-M-14, read-out: MIC)
32 µg/mL: MIC (K. pneumoniae; alone, KPN UFR81, beta-lactamases TEM-1, SHV-1 DHA-1 OXA-48) | MIC (M. morganii [1]) | MIC (P. mirabilis)
6.39: pIC50 (OXA-11)
2 µg/mL: MIC (C. freundii; CFR UFR37, beta-lactamases TEM-1, CTX-M-15 NDM-1) | MIC (E. cloacae; ECL NEM146383, beta-lactamases AmpC, read-out: MIC) | MIC (E. cloacae; ECL UFR12, beta-lactamases CTX-M-9 OXA-48, read-out: MIC) | MIC (E. cloacae; ECL UFR13, beta-lactamases TEM-1, SHV-12, CTX-M-9 OXA-48, read-out: MIC) | MIC (E. cloacae; ECL UFR85, beta-lactamases TEM-1, CTX-M-15 AmpC, read-out: MIC) | MIC (E. coli; ECO 260508, beta-lactamases TEM-1, CTX-M-15 OXA-1, read-out: MIC) | MIC (E. coli; ECO UFR16, beta-lactamases TEM-1, CTX-M-15 OXA-1 OXA-48, read-out: MIC) | MIC (E. coli; ECO UFR39, beta-lactamases CTX-M-15 NDM-1, read-out: MIC) | MIC (E. coli; ECO UFR74, beta-lactamases SHV-1 DHA-1, read-out: MIC) | MIC (K. pneumoniae; alone, KPN 110376, beta-lactamases TEM-1, SHV-1, CTX-M-15 OXA-1 OXA-48) | MIC (K. pneumoniae; alone, KPN 190551, beta-lactamases TEM-1, SHV-1, CTX-M-15 OXA-1) | MIC (K. pneumoniae; alone, KPN 200047, beta-lactamases TEM-1, SHV-32, CTX-M-15 OXA-1) | MIC (K. pneumoniae; alone, KPN 200327, beta-lactamases TEM-1, SHV-1, CTX-M-15 OXA-1) | MIC (K. pneumoniae; alone, KPN 260376, beta-lactamases SHV-1, SHV-49 OXA-1) | MIC (K. pneumoniae; alone, KPN LIB, beta-lactamases SHV-11 OXA-48) | MIC (K. pneumoniae; alone, KPN UFR25, beta-lactamases TEM-1, SHV-11, CTX-M-15 OXA-162) | MIC (K. pneumoniae; alone, KPN UFR28, beta-lactamases TEM-1, SHV-1, CTX-M-15 OXA-1 OXA-232)
6.57: pIC50 (OXA-15)
